Assays:
[1] = system: E. coli; assay: growth and Nal incorporation of E. coli expression host with added AZL; assay type: cell-based; conditions: AZL added to the medium
Experimental: Incomplete occupancy of the UUG codon by Nal is due at least in part to competition with leucine-charged E. coli tRNA^LeuS. In an attempt to reduce competition by E. coli tRNA^LeuS, use of a mutant E. coli strain lacking tRNA^LeuCAA and addition of an E. coli leucyl-tRNA synthetase (LeuRS) inhibitor were tested. A Phe/Leu double auxotrophic strain derived from the tRNA^LeuCAA-deficient strain XA106 (CGSC at Yale) was tested for incorporation of Nal at the UUG codon.
Peptide 5UUG/UUG (residues 26-35, […], SEQ ID NO: 8) contains two Leu residues encoded as UUG. Upon addition of Nal, the masses of these fragments shift in accord with the mass difference between Nal and Leu. Only Nal (a), Nal and 1 mM AZL (b) were supplemented into the media.

[2] = target: E. coli LeuRS (Escherichia coli, UniProt P07813); conditions: in vitro; cited from earlier work
Sequence of E. coli LeuRS (P07813 whole entry): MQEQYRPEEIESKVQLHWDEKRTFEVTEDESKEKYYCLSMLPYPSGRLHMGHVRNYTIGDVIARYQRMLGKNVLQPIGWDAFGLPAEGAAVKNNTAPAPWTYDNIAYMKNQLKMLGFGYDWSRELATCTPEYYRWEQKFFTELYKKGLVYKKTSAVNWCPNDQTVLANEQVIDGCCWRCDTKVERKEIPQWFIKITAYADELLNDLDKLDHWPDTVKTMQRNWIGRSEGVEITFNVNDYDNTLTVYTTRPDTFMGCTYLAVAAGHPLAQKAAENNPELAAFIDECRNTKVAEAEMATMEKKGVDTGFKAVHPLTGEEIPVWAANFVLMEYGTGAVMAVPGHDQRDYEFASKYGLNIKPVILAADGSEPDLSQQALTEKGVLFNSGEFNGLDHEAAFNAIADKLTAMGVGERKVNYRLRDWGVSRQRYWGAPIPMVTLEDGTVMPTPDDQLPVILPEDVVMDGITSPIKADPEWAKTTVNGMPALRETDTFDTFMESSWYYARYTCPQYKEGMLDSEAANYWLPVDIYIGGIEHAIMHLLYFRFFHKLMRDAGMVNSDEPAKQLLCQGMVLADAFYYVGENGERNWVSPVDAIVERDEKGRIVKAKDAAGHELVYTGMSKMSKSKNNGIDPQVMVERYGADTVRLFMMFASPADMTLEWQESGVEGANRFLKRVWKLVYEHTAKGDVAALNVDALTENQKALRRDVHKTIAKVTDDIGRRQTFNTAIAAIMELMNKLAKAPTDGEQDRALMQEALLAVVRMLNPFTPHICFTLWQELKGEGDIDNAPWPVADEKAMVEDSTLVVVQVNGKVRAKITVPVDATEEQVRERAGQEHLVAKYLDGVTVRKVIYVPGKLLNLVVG

[3] = cited from earlier work; for pKa (second of two pKa's): higher of the two pKa's of the side-chain moiety; for pKa (first of two pKa's): lower of the two pKa's of the side-chain moiety
[4] = target: mu-yPheRS (modified yeast PheRS, Thr415Gly) (Saccharomyces cerevisiae, UniProt P15625, T415G); conditions: Nal versus Phe
Sequence of mu-yPheRS (modified yeast PheRS, Thr415Gly) (P15625 whole entry T415G): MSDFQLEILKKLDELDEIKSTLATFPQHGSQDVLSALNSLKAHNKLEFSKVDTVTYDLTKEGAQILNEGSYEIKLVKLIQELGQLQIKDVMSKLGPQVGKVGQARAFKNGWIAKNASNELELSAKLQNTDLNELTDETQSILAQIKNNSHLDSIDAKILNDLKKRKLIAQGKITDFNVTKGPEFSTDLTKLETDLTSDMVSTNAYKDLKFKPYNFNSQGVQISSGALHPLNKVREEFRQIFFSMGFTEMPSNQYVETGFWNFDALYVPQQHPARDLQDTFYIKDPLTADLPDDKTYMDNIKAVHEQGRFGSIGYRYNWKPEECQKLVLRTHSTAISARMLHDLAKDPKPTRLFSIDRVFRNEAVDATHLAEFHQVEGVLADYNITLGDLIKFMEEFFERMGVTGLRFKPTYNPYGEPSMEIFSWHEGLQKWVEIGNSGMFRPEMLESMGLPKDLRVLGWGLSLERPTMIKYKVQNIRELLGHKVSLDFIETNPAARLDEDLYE
Sequence of mu-yPheRS (modified yeast PheRS, Thr415Gly) (P15624 whole entry, further chain): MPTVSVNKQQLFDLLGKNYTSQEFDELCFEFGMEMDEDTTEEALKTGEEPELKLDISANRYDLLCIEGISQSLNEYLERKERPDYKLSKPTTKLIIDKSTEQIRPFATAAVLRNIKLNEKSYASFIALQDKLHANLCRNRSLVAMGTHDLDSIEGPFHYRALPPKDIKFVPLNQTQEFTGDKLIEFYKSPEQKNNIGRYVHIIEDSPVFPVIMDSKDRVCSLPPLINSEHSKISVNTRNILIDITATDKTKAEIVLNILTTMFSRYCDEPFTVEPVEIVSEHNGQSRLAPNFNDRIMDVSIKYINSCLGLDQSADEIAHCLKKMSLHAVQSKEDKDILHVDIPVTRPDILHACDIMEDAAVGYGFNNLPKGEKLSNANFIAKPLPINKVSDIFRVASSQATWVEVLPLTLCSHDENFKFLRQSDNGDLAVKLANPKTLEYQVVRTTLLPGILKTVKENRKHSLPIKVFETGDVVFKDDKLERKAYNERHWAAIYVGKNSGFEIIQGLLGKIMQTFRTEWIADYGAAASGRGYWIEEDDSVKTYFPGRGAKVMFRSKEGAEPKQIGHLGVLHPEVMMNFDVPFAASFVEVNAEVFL
Experimental: The modified yeast PheRS (mu-yPheRS) was prepared by introduction of a Thr415Gly mutation in the α-subunit of the synthetase (Datta et al., J. Am. Chem. Soc. 124: 5652, 2002). The kinetics of activation of Nal and Phe by mu-yPheRS were analyzed in vitro via the pyrophosphate exchange assay.

[5] = target: leucine zipper c-MYC-MAX heterodimer (Homo sapiens, UniProt P01106+P61244); conditions: histidine at the center of c-MYC-MAX leucine zipper; cited from earlier work
Sequence of leucine zipper c-MYC-MAX heterodimer (P01106 428-449 limits assumed): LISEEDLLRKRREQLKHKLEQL
Sequence of leucine zipper c-MYC-MAX heterodimer (P61244 81-102 limits assumed): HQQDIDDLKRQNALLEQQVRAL

SMILES: CN(C)CC(N)C(=O)O (racemic) [AZL, 4-Aza-DL-leucine]
- growth rate of the host [1]: reduced the growth rate
- occupancy of the UUG codon by Nal ([1]; mDHFR expression): enhanced occupancy
- inhibition of E. coli LeuRS [2]: competitive inhibitor

SMILES: N[C@@H](Cc1c[nH]c(F)n1)C(=O)O [2-fluoro-histidine]
- pKa (second of two pKa's) [3]: 11.5
- pKa (first of two pKa's) [3]: 4.0

SMILES: N[C@@H](Cc1ccc2ccccc2c1)C(=O)O [Nal, L-3-(2-naphthyl)alanine]
- kcat/KM relative to that for Phe [4]: 8 fold

SMILES: N[C@@H](Cc1c[nH]cn1)C(=O)O [histidine]
- histidine pKa, experimental value [5]: 7.19
- pKa (second of two pKa's) [3]: 14.52
- pKa (first of two pKa's) [3]: 7.05

Source: patent US20050260711A1, “Modulating pH-sensitive binding using non-natural amino acids” (priority 2004, published 2005)
